Experimental data: patent publication US10927123B2, “Modulators of the beta-3 adrenergic receptor useful for the treatment or prevention of disorders related thereto” (Arena Pharmaceuticals, Inc., priority 2016, dated 2021)

Target: Beta-3 Adrenergic Receptor (Homo sapiens (Human), UniProt P13945)
Assay: HTRF cAMP antagonist assay (IC50 determination)
Format: cell-based
Settings: CHO-K1 cells stably expressing recombinant receptor; antagonism of isoproterenol at EC90; cAMP readout
How it was run: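 Antagonist mode: isoproterenol at its predetermined EC90 added after compound to recombinant CHO-K1 cells in IBMX-containing PBS, 1 h, room temperature. Compounds tested as 5-fold, 10-point dilutions, top final typically 10 or 100 μM. HTRF signal converted to cAMP via standard curve, giving IC50.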

Chain of Beta-3 Adrenergic Receptor (P13945 whole entry, species assumed): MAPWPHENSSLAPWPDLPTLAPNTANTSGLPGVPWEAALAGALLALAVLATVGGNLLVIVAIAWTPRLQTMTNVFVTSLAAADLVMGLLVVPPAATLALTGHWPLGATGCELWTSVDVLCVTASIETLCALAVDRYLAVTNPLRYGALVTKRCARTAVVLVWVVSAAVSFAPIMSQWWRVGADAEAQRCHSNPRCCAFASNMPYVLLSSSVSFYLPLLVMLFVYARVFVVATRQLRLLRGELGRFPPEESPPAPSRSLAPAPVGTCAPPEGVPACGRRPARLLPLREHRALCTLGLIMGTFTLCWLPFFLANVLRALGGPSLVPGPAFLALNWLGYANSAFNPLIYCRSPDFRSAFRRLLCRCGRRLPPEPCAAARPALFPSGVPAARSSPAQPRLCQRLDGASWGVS

Row | IC50 [nM] | Compound
1 | 57.9 | O=c1[nH]c2cc(S(=O)(=O)N3CCC4(CC3)C[C@@H](NC[C@H](O)COc3cccc(S(=O)(=O)C5CC5)c3)CO4)cnc2[nH]1 [Compound 281, 6-((R)-3-((S)-3-(3-(cyclopropylsulfonyl)phenoxy)-2-hydroxypropylamino)-1-oxa-8-azaspiro[4.5]decan-8-ylsulfonyl)-1H-imidazo[4,5-b]pyridin-2(3H)-one]
2 | 443 | NC(=O)CCS(=O)(=O)c1cccc(OC[C@@H](O)CN[C@H]2COC3(CCN(S(=O)(=O)c4ccc5ncccc5c4)CC3)C2)c1 [Compound 133, 3-(3-((S)-2-hydroxy-3-((R)-8-(quinolin-6-ylsulfonyl)-1-oxa-8-azaspiro[4.5]decan-3-ylamino)propoxy)phenylsulfonyl)propanamide]
3 | 92.2 | O=S(=O)(CCO)c1cccc(OC[C@@H](O)CN[C@H]2COC3(CCN(S(=O)(=O)c4cccc(-c5ccccn5)c4)CC3)C2)c1 [Compound 100, (S)-1-(3-(2-hydroxyethylsulfonyl)phenoxy)-3-((R)-8-(3-(pyridin-2-yl)phenylsulfonyl)-1-oxa-8-azaspiro[4.5]decan-3-ylamino)propan-2-ol]
4 | 29.1 | COc1c(-c2ccc(CN)cc2)cccc1S(=O)(=O)N1CCC2(CC1)C[C@H](NC[C@H](O)COc1cccc(S(=O)(=O)C3CC3)c1)CO2 [Compound 228, (S)-1-((S)-8-(4′-(aminomethyl)-2-methoxybiphenyl-3-ylsulfonyl)-1-oxa-8-azaspiro[4.5]decan-3-ylamino)-3-(3-(cyclopropylsulfonyl)phenoxy)propan-2-ol]
5 | 27.5 | CCOc1ccc(-c2ccc(CN)c(F)c2)cc1S(=O)(=O)N1CCC2(CC1)C[C@H](NC[C@H](O)COc1cccc(S(=O)(=O)C3(CO)CC3)c1)CO2 [Compound 220, (S)-1-((S)-8-(4′-(aminomethyl)-4-ethoxy-3′-fluorobiphenyl-3-ylsulfonyl)-1-oxa-8-azaspiro[4.5]decan-3-ylamino)-3-(3-(1-(hydroxymethyl)cyclopropylsulfonyl)phenoxy)propan-2-ol]
6 | 5.7 | CCS(=O)(=O)c1cccc(OC[C@@H](O)CNC2COC3(CCN(S(=O)(=O)c4ccc5ccccc5c4)CC3)C2)c1 (stereo partly drawn) [Compound 15, (2S)-1-(3-(ethylsulfonyl)phenoxy)-3-(8-(naphthalen-2-ylsulfonyl)-1-oxa-8-azaspiro[4.5]decan-3-ylamino)propan-2-ol]
7 | 76.2 | O=S(=O)(Cc1ccccc1)c1cccc(OC[C@@H](O)CNC2COC3(CCN(S(=O)(=O)c4ccc5ccccc5c4)CC3)C2)c1 (stereo partly drawn) [Compound 20, (2S)-1-(3-(benzylsulfonyl)phenoxy)-3-(8-(naphthalen-2-ylsulfonyl)-1-oxa-8-azaspiro[4.5]decan-3-ylamino)propan-2-ol]
8 | 36.2 | CC(C)(CO)S(=O)(=O)c1cccc(OC[C@@H](O)CN[C@H]2COC3(CCN(S(=O)(=O)c4cnc5ccccc5c4)CC3)C2)c1 [Compound 106, 2-(3-((S)-2-hydroxy-3-((R)-8-(quinolin-3-ylsulfonyl)-1-oxa-8-azaspiro[4.5]decan-3-ylamino)propoxy)phenylsulfonyl)-2-methylpropan-1-ol]
9 | 70.8 | CS(=O)(=O)c1cccc(OC[C@@H](O)CNC2COC3(CCN(S(=O)(=O)c4cccc(-c5cnn(C6CC6)c5)c4)CC3)C2)c1 (stereo partly drawn) [Compound 39, (2S)-1-(8-(3-(1-cyclopropyl-1H-pyrazol-4-yl)phenylsulfonyl)-1-oxa-8-azaspiro[4.5]decan-3-ylamino)-3-(3-(methylsulfonyl)phenoxy)propan-2-ol]
10 | 7.77 | O=S(=O)(c1cccc(OC[C@@H](O)CN[C@H]2COC3(CCN(S(=O)(=O)c4cnc5ccccc5c4)CC3)C2)c1)C1CC1 [Compound 144, (S)-1-(3-(cyclopropylsulfonyl)phenoxy)-3-((R)-8-(quinolin-3-ylsulfonyl)-1-oxa-8-azaspiro[4.5]decan-3-ylamino)propan-2-ol]
11 | 12 | O=S(=O)(c1cnc2ccccc2c1)N1CCC2(CC1)C[C@@H](NC[C@H](O)COc1cccc(S(=O)(=O)C(F)(F)CO)c1)CO2 [Compound 130, (S)-1-(3-(1,1-difluoro-2-hydroxyethylsulfonyl)phenoxy)-3-((R)-8-(quinolin-3-ylsulfonyl)-1-oxa-8-azaspiro[4.5]decan-3-ylamino)propan-2-ol]
12 | 270 | CCn1cc(S(=O)(=O)N2CCC3(CC2)C[C@@H](NC[C@H](O)COc2cccc(S(=O)(=O)C4CC4)c2)CO3)c(=O)c2cc(F)ccc21 [Compound 314, 3-((R)-3-((S)-3-(3-(cyclopropylsulfonyl)phenoxy)-2-hydroxypropylamino)-1-oxa-8-azaspiro[4.5]decan-8-ylsulfonyl)-1-ethyl-6-fluoroquinolin-4(1H)-one]
13 | 50.3 | CCOc1ccc(-c2ccc(C3(N)CC3)cc2)cc1S(=O)(=O)N1CCC2(CC1)C[C@@H](NC[C@H](O)COc1cccc(S(=O)(=O)C3(CO)CC3)c1)CO2 [Compound 172, (S)-1-((R)-8-(4′-(1-aminocyclopropyl)-4-ethoxybiphenyl-3-ylsulfonyl)-1-oxa-8-azaspiro[4.5]decan-3-ylamino)-3-(3-(1-(hydroxymethyl)cyclopropylsulfonyl)phenoxy)propan-2-ol]
14 | 43.2 | CS(=O)(=O)c1cccc(OC[C@@H](O)CNC2COC3(CCN(S(=O)(=O)c4cccc(-c5ccc(CNCC(F)(F)F)cc5)c4)CC3)C2)c1 (stereo partly drawn) [Compound 82, (2S)-1-(3-(methylsulfonyl)phenoxy)-3-(8-(4′-((2,2,2-trifluoroethylamino)methyl)biphenyl-3-ylsulfonyl)-1-oxa-8-azaspiro[4.5]decan-3-ylamino)propan-2-ol]
15 | 56.9 | CN1CCOc2cc(S(=O)(=O)N3CCC4(CC3)C[C@@H](NC[C@H](O)COc3cccc(S(=O)(=O)C5(CO)CC5)c3)CO4)cnc21 [Compound 286, (S)-1-(3-(1-(hydroxymethyl)cyclopropylsulfonyl)phenoxy)-3-((R)-8-(4-methyl-3,4-dihydro-2H-pyrido[3,2-b][1,4]oxazin-7-ylsulfonyl)-1-oxa-8-azaspiro[4.5]decan-3-ylamino)propan-2-ol]
16 | 586 | C[C@H]1CN(C)c2cc(S(=O)(=O)N3CCC4(CC3)C[C@@H](NC[C@H](O)COc3cccc(S(=O)(=O)CC(N)=O)c3)CO4)cnc2O1 [Compound 278, 2-(3-((S)-3-((R)-8-((S)-1,3-dimethyl-2,3-dihydro-1H-pyrido[2,3-b][1,4]oxazin-7-ylsulfonyl)-1-oxa-8-azaspiro[4.5]decan-3-ylamino)-2-hydroxypropoxy)phenylsulfonyl)acetamide]
17 | 21.1 | CCOc1ccc(-c2ccc(CN)cc2)cc1S(=O)(=O)N1CCC2(CC1)C[C@@H](NC[C@H](O)COc1cccc(S(=O)(=O)C(F)(F)CO)c1)CO2 [Compound 161, (S)-1-((R)-8-(4′-(aminomethyl)-4-ethoxybiphenyl-3-ylsulfonyl)-1-oxa-8-azaspiro[4.5]decan-3-ylamino)-3-(3-(1,1-difluoro-2-hydroxyethylsulfonyl)phenoxy)propan-2-ol]
18 | 277 | O=S(=O)(CCO)c1cccc(OC[C@@H](O)CN[C@H]2COC3(CCN(S(=O)(=O)c4cccc5cnccc45)CC3)C2)c1 [Compound 105, (S)-1-(3-(2-hydroxyethylsulfonyl)phenoxy)-3-((R)-8-(isoquinolin-5-ylsulfonyl)-1-oxa-8-azaspiro[4.5]decan-3-ylamino)propan-2-ol]
19 | 922 | CN1CCOc2cc(C(=O)N3CCC4(CC3)CC(NC[C@H](O)COc3cccc(S(C)(=O)=O)c3)CO4)ccc21 (stereo partly drawn) [Compound 64, (3-((S)-2-hydroxy-3-(3-(methylsulfonyl)phenoxy)propylamino)-1-oxa-8-azaspiro[4.5]decan-8-yl)(4-methyl-3,4-dihydro-2H-benzo[6][1,4]oxazin-7-yl)methanone]
20 | 17.5 | NCc1ccc(-c2ccc(F)c(S(=O)(=O)N3CCC4(CC3)C[C@@H](NC[C@H](O)COc3cccc(S(=O)(=O)C5(CO)CC5)c3)CO4)c2)cc1 [Compound 169, (S)-1-((R)-8-(4′-(aminomethyl)-4-fluorobiphenyl-3-ylsulfonyl)-1-oxa-8-azaspiro[4.5]decan-3-ylamino)-3-(3-(1-(hydroxymethyl)cyclopropylsulfonyl)phenoxy)propan-2-ol]
21 | 151 | Cn1cnc2ccc(S(=O)(=O)N3CCC4(CC3)C[C@@H](NC[C@H](O)COc3cccc(S(=O)(=O)C5(CO)CC5)c3)CO4)nc21 [Compound 287, (S)-1-(3-(1-(hydroxymethyl)cyclopropylsulfonyl)phenoxy)-3-((R)-8-(3-methyl-3H-imidazo[4,5-b]pyridin-5-ylsulfonyl)-1-oxa-8-azaspiro[4.5]decan-3-ylamino)propan-2-ol]
22 | 177 | CN1CC(C)(C)Oc2nc(S(=O)(=O)N3CCC4(CC3)C[C@@H](NC[C@H](O)COc3cccc(S(=O)(=O)C5(CO)CC5)c3)CO4)ccc21 [Compound 288, (S)-1-(3-(1-(hydroxymethyl)cyclopropylsulfonyl)phenoxy)-3-((R)-8-(1,3,3-trimethyl-2,3-dihydro-1H-pyrido[2,3-b][1,4]oxazin-6-ylsulfonyl)-1-oxa-8-azaspiro[4.5]decan-3-ylamino)propan-2-ol]
23 | 34.5 | O=S(=O)(c1cccc(OC[C@@H](O)CN[C@H]2COC3(CCN(S(=O)(=O)c4c[nH]c5ccccc45)CC3)C2)c1)C1CC1 [Compound 308, (S)-1-((R)-8-(1H-indol-3-ylsulfonyl)-1-oxa-8-azaspiro[4.5]decan-3-ylamino)-3-(3-(cyclopropylsulfonyl)phenoxy)propan-2-ol]
24 | 35 | CCOc1ccc(-c2ccc(C3(N)CC3)cc2)cc1S(=O)(=O)N1CCC2(CC1)C[C@H](NC[C@H](O)COc1cccc(S(=O)(=O)C3(CO)CC3)c1)CO2 [Compound 188, (S)-1-((S)-8-(4′-(1-aminocyclopropyl)-4-ethoxybiphenyl-3-ylsulfonyl)-1-oxa-8-azaspiro[4.5]decan-3-ylamino)-3-(3-(1-(hydroxymethyl)cyclopropylsulfonyl)phenoxy)propan-2-ol]
